From patent US12606543B2, “Indole derivatives as serotonergic agents useful for the treatment of disorders related thereto” (priority 2023, dated 2026)
Like-named read-outs stand apart in the source and are kept apart here.

Tests used:
[1] = Pharmacokinetic studies in rat (i.v.); assay type: in vivo; settings: male, Sprague-Dawley, plasma; for concentration at 0.25 h / concentration at 1 h / concentration at 4 h: intravenous, dose per Dose column (1.32-2.09 mg/kg); for half-life / AUC(0-t): iv, rat plasma, i.v., dose per Dose column; for half-life: estimated from 2 points only
Procedure: Animals: Male Sprague-Dawley rats (˜225-350 g) from Charles River Labs were acclimatized for a minimum of 5 days prior to start of study procedures. Body weights were recorded on the day of dosing.
Any abnormalities were documented including presence/absence of wet dog shakes/back muscle contractions (WDS/BMC).
Dosing: Formulations were administered intravenously (i.v.) via the tail vein using a 25 G needle connected to a 1 cc syringe.
The exemplary compounds of Formula (I) were freshly prepared at the appropriate concentrations in 5% Tween-80 in saline.
Blood collection time (h): 0, […], 1 and 4
Volume/time-point: ˜0.25 mL (saphenous vein)
Instrumentation: AB Sciex QTRAP 4000 or 6500 MS/MS system equipped with an LC system with a binary pump, a solvent degasser, a thermostated column compartment, and a multiplate autosampler.
Analysis software: Phoenix® WinNonlin® 8.3 (Pharsight, Certara, Mountainview, CA).
Analysis methods: non-compartmental analysis, linear up/log down trapezoidal rule.
PK parameters: t1/2 and AUC0-tlast was estimated.
The Compounds of Formula (I) were freshly prepared at the appropriate concentrations in 5% Tween-80 in saline.
Instrumentation: AB Sciex QTRAP 4000 or 6500 MS/MS system equipped with an LC system with a binary pump, a solvent degasser, a thermostated column compartment and a multiplate autosampler.
PK parameters: t1/2 and AUC0-tlast will be estimated.

[2] = Liver microsomes stability, human; assay type: in vitro ADME; settings: human liver microsomes; for half-life at 2 μM / microsomal CLint at 2 μM: 2 μM compound, 0.5 mg/mL microsomes; for CLint scaled at 2 μM: read-out: Scaled-up CLint
Procedure: (§1) The objective of this study was to estimate in vitro metabolic stability of exemplary compounds of Formula (I) or a pharmaceutically acceptable salt, solvate, and/or prodrug thereof in pooled human, male rat, and male mouse liver microsomes. The concentrations of compounds in reaction systems were evaluated by LC-MS/MS for estimating the stability in pooled human, male rat, and male mouse liver microsomes. The in vitro intrinsic clearances of test compounds were determined as well.
A master solution in the “Incubation Plate” containing phosphate buffer, ultra-pure H2O, MgCl2 solution and liver microsomes was made according to Table 33. The mixture was pre-warmed at 37° C. water bath for 5 minutes.
40 μL of 10 mM nicotinamide adenine dinucleotide phosphate (NADPH) solution was added to each well. The final concentration of NADPH was 1 mM. The negative control samples were prepared by replacing NADPH with 40 μL of ultra-pure H2O. Samples were prepared in duplicate. Negative controls were prepared in singlet.
The reaction was started with the addition of 4 μL of 200 μM exemplary test compounds of the disclosure or control compounds to each master solution to get the final concentration of 2 μM. This study was performed in duplicate.
Aliquots of 50 μL were taken from the reaction solution at 0, 15, 30, 45, and 60 minutes. The reaction solutions were stopped by the addition of 4 volumes of cold methanol with IS (100 nM alprazolam, 200 nM imipramine, 200 nM labetalol, and 2 μM ketoprofen). Samples were centrifuged at 3,220 g for 40 minutes. Aliquot of 90 μL of the supernatant was mixed with 90 μL of ultra-pure H2O and then was used for LC-MS/MS analysis.
LC/MS analysis was performed for all samples from this study using a Shimadzu liquid chromatograph separation system equipped with degasser DGU-20A5R; solvent delivery unit LC-30AD; system controller SIL-30AC; column oven CTO-30A; CTC Analytics HTC PAL System. Mass spectrometric analysis was performed using a Triple Quad™ 5500 instrument.
All calculations were carried out using Microsoft Excel. Peak area ratios of test compound to internal standard (listed in the below table) were determined from extracted ion chromatograms.
All calculations were carried out using Microsoft Excel. Peak areas were determined from extracted ion chromatograms. The slope value, k, was determined by linear regression of the natural logarithm of the remaining percentage of the parent drug vs. incubation time curve.
The in vitro half-life (in vitro t1/2) was determined from the slope value:
Conversion of the in vitro t1/2 (min) into the in vitro intrinsic clearance (in vitro CLint, in μL/min/mg proteins) was done using the following equation (mean of duplicate determinations): […]
as §1, with “solvate” for “solvate,”, “rat” for “rat,”
A master solution in the “Incubation Plate” containing phosphate buffer, ultra-pure H2O, MgCl2 solution and liver microsomes was made according to Table 67. The mixture was pre-warmed at 37° C. water bath for 5 minutes.
40 μL of 10 mM NADPH solution was added to each well. The final concentration of NADPH was 1 mM. The negative control samples were prepared by replacing NADPH with 40 μL of ultra-pure H2O. Samples were prepared in duplicate. Negative controls were prepared in singlet
Aliquots of 50 μL were taken from the reaction solution at 0, 15, 30, 45 and 60 minutes. The reaction solutions were stopped by the addition of 4 volumes of cold methanol with IS (100 nM alprazolam, 200 nM imipramine, 200 nM labetalol and 2 μM ketoprofen).

[3] = first animal (R07/R04/R01/R10), read-out: Plasma concentration
[4] = mean of 3 rats, read-out: Plasma concentration, Mean ± SD
[5] = second animal (R08/R05/R02/R11), read-out: Plasma concentration
[6] = third animal (R09/R06/R03/R12), read-out: Plasma concentration
[7] = first animal (R07/R04/R01/R10), read-out: Apparent t1/2 (converted)
[8] = mean of 3 rats, read-out: Apparent t1/2, Mean ± SD (converted)
[9] = second animal (R08/R05/R02/R11), read-out: Apparent t1/2 (converted)
[10] = third animal (R09/R06/R03/R12), read-out: Apparent t1/2 (converted)
[11] = first animal (R07/R04/R01/R10), read-out: AUC0-tlast
[12] = mean of 3 rats, read-out: AUC0-tlast, Mean ± SD
[13] = second animal (R08/R05/R02/R11), read-out: AUC0-tlast
[14] = third animal (R09/R06/R03/R12), read-out: AUC0-tlast

| SMILES | concentration at 0.25 h [1, 3] [ng/mL] | concentration at 0.25 h [1, 4] [ng/mL] | concentration at 0.25 h [1, 5] [ng/mL] | concentration at 0.25 h [1, 6] [ng/mL] | concentration at 1 h [1, 3] [ng/mL] | concentration at 1 h [1, 4] [ng/mL] | concentration at 1 h [1, 5] [ng/mL] | concentration at 1 h [1, 6] [ng/mL] | concentration at 4 h [1, 3] [ng/mL] | concentration at 4 h [1, 4] [ng/mL] | concentration at 4 h [1, 5] [ng/mL] | concentration at 4 h [1, 6] [ng/mL] | half-life [1, 7] [h] | half-life [1, 8] [h] | half-life [1, 9] [h] | half-life [1, 10] [h] | AUC(0-t) [1, 11] [ng·h/mL] | AUC(0-t) [1, 12] [ng·h/mL] | AUC(0-t) [1, 13] [ng·h/mL] | AUC(0-t) [1, 14] [ng·h/mL] | other results |
| --- | --- | --- | --- | --- | --- | --- | --- | --- | --- | --- | --- | --- | --- | --- | --- | --- | --- | --- | --- | --- | --- |
| [2H]C([2H])(c1c[nH]c2ccc(OCCCCCN3C(=O)C4CCCCC4C3=O)cc12)[C@H]1CCCN1C([2H])([2H])[2H] (mixture of isomers) [Rac (R) I-248] | 235 | 377 ± 123 | 437 | 459 | 134 | 144 ± 15.9 | 135 | 162 | 27.8 | 18.8 ± 8.29 | 11.5 | 17 | 1.25 | 0.939 ± 0.269 | 0.747 | 0.823 | 402 | 474 ± 71 | 477 | 544 | Predicted hepatic CL [2]: >19.64 mL/min/kg; half-life at 2 μM [2]: < 0.0752 h; microsomal CLint at 2 μM [2]: > 307 µL/min/mg; Remaining Percentage ([2]; With Cofactors, 0 min): 100.00%; Remaining Percentage ([2]; With Cofactors, 30 min): 0.04%; Remaining Percentage ([2]; With Cofactors, 60 min): 0.00%; Remaining Percentage ([2]; Without Cofactors, 0 min): 100.00%; Remaining Percentage ([2]; Without Cofactors, 30 min): 100.47%; Remaining Percentage ([2]; Without Cofactors, 60 min): 98.60%; CLint scaled at 2 μM [2]: > 385 mL/min/kg |
| [2H]C([2H])(c1c[nH]c2ccc(OCCCCCN3C(=O)c4ccccc4C3=O)cc12)[C@H]1CCCN1C([2H])([2H])[2H] [(R) I-245, (R)-2-(5-((3-((1-(Methyl-d3)pyrrolidin-2-yl)methyl-d2)-1H-indol-5-yl)oxy)pentyl)isoindoline-1,3-dione] | 307 | 178 ± 119 | 154 | 71.8 | 170 | 130 ± 36.6 | 121 | 98.3 | 39.9 | 43.9 ± 4.21 | 43.6 | 48.3 | 1.32 | 2.1 ± 0.806 | 2.05 | 2.93 | 528 | 397 ± 120 | 370 | 293 | Predicted hepatic CL [2]: 18.11 mL/min/kg; half-life at 2 μM [2]: 0.2 h; microsomal CLint at 2 μM [2]: 115 µL/min/mg; Remaining Percentage ([2]; With Cofactors, 0 min): 100.00%; Remaining Percentage ([2]; With Cofactors, 30 min): 14.62%; Remaining Percentage ([2]; With Cofactors, 60 min): 3.13%; Remaining Percentage ([2]; Without Cofactors, 0 min): 100.00%; Remaining Percentage ([2]; Without Cofactors, 30 min): 101.09%; Remaining Percentage ([2]; Without Cofactors, 60 min): 98.91%; CLint scaled at 2 μM [2]: 145 mL/min/kg |
